The source of these data is ChEMBL document CHEMBL1132853, “Design and synthesis of highly potent fumagillin analogues from homology modeling for a human MetAP-2” (Bioorg Med Chem Lett, 2000).

The subject of one assay is CPAE. Nature of the assay: Tested in vitro for its ability to inhibit cell proliferation of calf pulmonary artery endothelial cells measured […] by SRB method. Type of assay: functional, cell-based, Bos taurus. In general terms: The SRB assay estimates cell density from bound dye.
Another assay has as its system EL4. Nature of the assay: Tested in vitro for its ability to inhibit cell proliferation of lymphoma EL-4 cells measured […] by MTT method. Type of assay: functional, cell-based, Mus musculus. (Formazan colour is commonly taken as a measure of viable cells.)
In a further assay the test system is P388. Nature of the assay: Tested in vitro for its ability to inhibit cell proliferation of murine leukemia P388D1 cells measured […] by MTT method. Type of assay: functional, cell-based. The following applies: Mus musculus.
Where [1] appears, read: Bos taurus, CPAE, Artery, read-out: IC50.
Where [2] appears, read: Mus musculus, EL4, read-out: IC50.

Values after ≈ are worked out from the molar mass of the structure shown.

As usually defined, the IC50 is the concentration at which inhibition is half-maximal.

On to `COc1cc(CCC(=O)O[C@@H]2CC[C@]3(CO3)[C@@H]([C@@]3(C)O[C@@H]3CC=C(C)C)[C@@H]2OC)cc(OC)c1OC`, for which the IC50 turned out to be 44 ng/mL (≈ 87.2 nM) in the assay on CPAE (setting [1]) and 36 ng/mL (≈ 71.3 nM) in the assay on EL4 (setting [2]).
Take `COc1ccc(CCOC(=O)O[C@@H]2CC[C@]3(CO3)[C@@H]([C@@]3(C)O[C@@H]3CC=C(C)C)[C@@H]2OC)cc1`: the figures for the half-inhibitory concentration (IC50) in the assay on CPAE (setting [1]) and with EL4 (setting [2]) were 2.3 ng/mL (≈ 4.99 nM) and 153 ng/mL (≈ 332 nM), respectively.
The like results for `COc1ccc(CCCC(=O)O[C@@H]2CC[C@]3(CO3)[C@@H]([C@@]3(C)O[C@@H]3CC=C(C)C)[C@@H]2OC)cc1` were, in that order, 125 ng/mL (≈ 273 nM) and 83 ng/mL (≈ 181 nM).
In the case of `CO[C@@H]1[C@H](OC(=O)OCc2ccc([N+](=O)[O-])cc2)CC[C@]2(CO2)[C@H]1[C@@]1(C)O[C@@H]1CC=C(C)C`, the IC50 was 0.11 ng/mL (≈ 0.238 nM) in the assay with CPAE (setting [1]), 2.47 ng/mL (≈ 5.35 nM) in the assay on EL4 (setting [2]) and over 1 ng/mL in the assay with P388.
`COc1ccc(/C=C/C(=O)O[C@@H]2CC[C@]3(CO3)[C@@H]([C@@]3(C)O[C@@H]3CC=C(C)C)[C@@H]2OC)cc1`: the results for the 50% inhibitory concentration (IC50) in the assay on CPAE (cpae), in the assay on EL4 (el4) and in the assay with P388 were 0.00006 ng/mL (≈ 0.000136 nM), 0.00019 ng/mL (≈ 0.000429 nM) and over 1 ng/mL, respectively.
Regarding `CO[C@@H]1[C@H](OC(=O)NC(=O)CCl)CC[C@]2(CO2)[C@H]1[C@@]1(C)O[C@@H]1CC=C(C)C` [O-CHLOROACETYLCARBAMOYLFUMAGILLOL], the figures for the half-inhibitory concentration (IC50) in the assay with CPAE (setting [1]), in the assay with EL4 (setting [2]) and in the assay on P388 were 0.04 ng/mL (≈ 0.0995 nM), 0.03 ng/mL (≈ 0.0746 nM) and over 10 ng/mL, respectively.
Take `CO[C@@H]1[C@H](OC(=S)SCc2ccccc2)CC[C@]2(CO2)[C@H]1[C@@]1(C)O[C@@H]1CC=C(C)C`: the IC50 in the assay on CPAE (setting [1]) worked out at 42 ng/mL (≈ 93.6 nM); in the assay with EL4 (setting [2]) it was 14 ng/mL (≈ 31.2 nM).
On to `COc1ccc(CCNC(=O)O[C@@H]2CC[C@]3(CO3)[C@@H]([C@@]3(C)O[C@@H]3CC=C(C)C)[C@@H]2OC)cc1OC`, for which the IC50 in the assay on CPAE (setting [1]) is 0.044 ng/mL (≈ 0.0899 nM); in the assay on EL4 (setting [2]) it was 0.042 ng/mL (≈ 0.0858 nM); in the assay with P388 it was over 1 ng/mL.
In the case of `COc1ccc(COC(=O)O[C@@H]2CC[C@]3(CO3)[C@@H]([C@@]3(C)O[C@@H]3CC=C(C)C)[C@@H]2OC)cc1`, the values for the IC50 with CPAE (setting [1]) and with EL4 (setting [2]) were 18 ng/mL (≈ 40.3 nM) and 42 ng/mL (≈ 94.1 nM), respectively.
Take `CO[C@@H]1[C@H](OC(=O)NCc2ccc(C(F)(F)F)cc2)CC[C@]2(CO2)[C@H]1[C@@]1(C)O[C@@H]1CC=C(C)C`: the results for the IC50 with CPAE (setting [1]), in the assay on EL4 (setting [2]) and in the assay on P388 were 0.0054 ng/mL (≈ 0.0112 nM), 0.014 ng/mL (≈ 0.029 nM) and over 1 ng/mL, respectively.
The like results for `CO[C@@H]1[C@H](O)CC[C@]2(CO2)[C@H]1[C@@]1(C)O[C@@H]1CC=C(C)C` were, in that order, 15 ng/mL (≈ 53.1 nM), 5.16 ng/mL (≈ 18.3 nM) and over 10 ng/mL.
The like results for `COc1ccc(CNC(=O)O[C@@H]2CC[C@]3(CO3)[C@@H]([C@@]3(C)O[C@@H]3CC=C(C)C)[C@@H]2OC)cc1` were, in that order, 0.044 ng/mL (≈ 0.0988 nM), 0.042 ng/mL (≈ 0.0943 nM) and over 1 ng/mL.
The like results for `CO[C@@H]1[C@H](OC(=O)/C=C/c2ccccc2)CC[C@]2(CO2)[C@H]1[C@@]1(C)O[C@@H]1CC=C(C)C` were, in that order, 0.046 ng/mL (≈ 0.112 nM), 0.05 ng/mL (≈ 0.121 nM) and over 1 ng/mL.
For `COc1cc(/C=C/C(=O)O[C@@H]2CC[C@]3(CO3)[C@@H]([C@@]3(C)O[C@@H]3CC=C(C)C)[C@@H]2OC)cc(OC)c1OC`, the half-maximal inhibitory concentration (IC50) is 0.00003 ng/mL (≈ 5.97e-05 nM) with CPAE (cpae), 0.00015 ng/mL (≈ 0.000298 nM) in the assay on EL4 (el4) and over 1 ng/mL in the assay with P388.
With `COc1ccc(/C=C\C(=O)O[C@@H]2CC[C@]3(CO3)[C@@H]([C@@]3(C)O[C@@H]3CC=C(C)C)[C@@H]2OC)cc1`, the IC50 was determined as 24 ng/mL (≈ 54.2 nM) with CPAE (setting [1]) and 12 ng/mL (≈ 27.1 nM) in the assay on EL4 (setting [2]).
For the molecule `CO[C@@H]1[C@H](OC(=O)/C=C/C=C/C=C/C=C/C(=O)O)CC[C@]2(CO2)[C@H]1[C@@]1(C)O[C@@H]1CC=C(C)C` [FUMAGILLIN], the results for the IC50 in the assay with CPAE (setting [1]), in the assay on EL4 (setting [2]) and with P388 were 0.37 ng/mL (≈ 0.807 nM), 0.42 ng/mL (≈ 0.916 nM) and over 1 ng/mL, respectively.
The like results for `C/C=C/C=C/C(=O)O[C@@H]1CC[C@]2(CO2)[C@@H]([C@@]2(C)O[C@@H]2CC=C(C)C)[C@@H]1OC` were, in that order, 12 ng/mL (≈ 31.9 nM), 5.05 ng/mL (≈ 13.4 nM) and over 1 ng/mL.
Consider `CO[C@@H]1[C@H](OC(=O)NCc2ccccc2)CC[C@]2(CO2)[C@H]1[C@@]1(C)O[C@@H]1CC=C(C)C`, for which the IC50 is 0.07 ng/mL (≈ 0.168 nM) with CPAE (setting [1]), 0.01 ng/mL (≈ 0.0241 nM) in the assay with EL4 (setting [2]) and over 1 ng/mL with P388.
